Results published in patent publication US20140135327A1, “N- (2 -AMINOPHENYL) BENZAMIDE DERIVATIVES AS HISTONE DEACETYLASE INHIBITORS” (CANCER RESEARCH TECHNOLOGY LIMITED, priority 2011, published 2014).

Experiments:
NB4 cells = assay: MTS assay, growth inhibition in NB4 cells; type: cell-based; details: after 3 days (FIG. 2(i) legend: 4 day), absorbance 490 nm relative to untreated cells
Experimental: (§1) HL60 or NB4 cells were diluted in complete growth medium and plated at a density of 5000 cells per 0.1 ml in wells of a 96 well plate. Cells were then treated with various concentrations of the compound of Example 7 (MI-192) or were left untreated as a control in a total volume of 0.2 ml of complete growth medium. After 3 days, relative cell numbers were determined using the MTS assay, as described by the manufacturer (Promega, Southampton, UK). The results shown in FIG. 2(i) are absorbance (490 nm) relative to control cells (untreated cells 100%).

[1] = tested on: CYP26 RNA expression in HL60 cells; assay: CYP26 RNA expression in HL60 cells (Q-RT-PCR); type: cell-based
Experimental: (§2) HL60 or NB4 cells were cultured at 1.0×10^6 cells/ml in complete growth medium. Cells (10 ml) were then treated with ATRA, the compound of Example 7(MI-192), or left untreated as controls. After 1 day, the expression of CYP26 and BACT RNAs were determined using quantitative PCR (Taqman). The expression of CYP26 RNA was normalised to BACT, and expression in control cells was set to 1.0.

HDAC 6 = target: T1, HDAC 6 (Homo sapiens, UniProt Q9UBN7); assay: Caliper HDAC inhibitor profiling assay (microfluidic mobility-shift), HDAC 6; type: biochemical; details: 1 hour at room temperature, read-out: IC50 (μM) HDAC6
T1 sequence (Q9UBN7 1-1215): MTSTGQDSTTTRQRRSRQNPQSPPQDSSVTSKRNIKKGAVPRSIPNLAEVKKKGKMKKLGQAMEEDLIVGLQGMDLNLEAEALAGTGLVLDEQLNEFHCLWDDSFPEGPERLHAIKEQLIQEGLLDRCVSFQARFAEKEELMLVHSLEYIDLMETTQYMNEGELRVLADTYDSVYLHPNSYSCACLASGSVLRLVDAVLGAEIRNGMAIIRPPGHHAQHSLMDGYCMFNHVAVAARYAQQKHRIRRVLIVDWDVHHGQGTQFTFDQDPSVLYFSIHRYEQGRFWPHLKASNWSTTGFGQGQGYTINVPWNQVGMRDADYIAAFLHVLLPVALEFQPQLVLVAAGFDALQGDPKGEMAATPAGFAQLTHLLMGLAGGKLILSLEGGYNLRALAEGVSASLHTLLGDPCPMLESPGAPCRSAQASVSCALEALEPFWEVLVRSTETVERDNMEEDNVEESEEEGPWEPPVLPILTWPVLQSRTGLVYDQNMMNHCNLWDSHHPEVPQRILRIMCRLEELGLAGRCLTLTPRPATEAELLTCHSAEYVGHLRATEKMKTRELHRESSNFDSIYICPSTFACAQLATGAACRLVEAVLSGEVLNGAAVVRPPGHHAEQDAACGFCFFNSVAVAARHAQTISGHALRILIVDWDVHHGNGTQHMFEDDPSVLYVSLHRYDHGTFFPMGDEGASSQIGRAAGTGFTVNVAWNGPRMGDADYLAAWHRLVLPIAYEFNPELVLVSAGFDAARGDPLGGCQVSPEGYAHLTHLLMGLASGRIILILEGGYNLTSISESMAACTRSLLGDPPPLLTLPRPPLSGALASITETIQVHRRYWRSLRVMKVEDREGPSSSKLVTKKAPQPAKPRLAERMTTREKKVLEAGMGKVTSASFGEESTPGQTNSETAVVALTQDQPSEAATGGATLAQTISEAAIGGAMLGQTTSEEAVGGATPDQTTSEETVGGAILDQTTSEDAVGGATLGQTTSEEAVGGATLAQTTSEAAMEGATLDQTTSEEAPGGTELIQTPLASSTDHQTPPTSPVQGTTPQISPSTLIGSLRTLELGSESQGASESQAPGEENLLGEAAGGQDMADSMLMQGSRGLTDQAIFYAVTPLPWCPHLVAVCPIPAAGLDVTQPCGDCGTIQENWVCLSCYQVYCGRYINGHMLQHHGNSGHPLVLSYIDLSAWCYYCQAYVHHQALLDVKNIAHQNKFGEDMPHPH
Experimental: The activity of the compounds of the invention against HDAC 3 (Class I) and HDAC 6 (Class II) can be determined using the Caliper Life Sciences HDAC inhibitor profiling assay, which utilises microfluidic mobility-shift detection.
Reaction buffer: 25 mM Tris/Cl, pH 8.0, 137 mM NaCl, 2.7 mM KCl, 1 mM MgCl2, 0.1 mg/ml BSA (fatty acid free).
Stop Buffer: 100 mM HEPES, pH 7.5, 10 mM EDTA, 0.04% Brij-35, 0.25% CR-3, and 2.5 μM Trichostatin A.
Stopped reactions were assembled in microtiter plate wells by adding 1 μL of the inhibitor compound in DMSO, 15 μL 2× Enzyme, and 15 μL 2× peptide. The reactions were incubated for 1 hour at room temperature, stopped with the addition of 45 μL Stop Solution, and read on the LabChip EZ Reader®. The curves were fit with sigmoidal dose response algorithm using GraphPad Prism.

HL60 cells [2] = assay: CD11b flow cytometry, differentiation in HL60 cells; type: cell-based; details: 3 days
Experimental: HL60 cells were cultured at 0.5×10^6 cells/ml in complete growth medium. Cells (2 ml) were then treated with ATRA (sourced commercially), the compound of Example 7 (MI-192), or left untreated as controls. After 3 days, CD11b expression was determined by flow cytometry using a PE-conjugated anti-CD11b monoclonal antibody.

HL60 cells [3] = assay: MTS assay, growth inhibition in HL60 cells; type: cell-based; details: after 3 days (FIG. 2(i) legend: 4 day), absorbance 490 nm relative to untreated cells
Experimental: as §1

[4] = tested on: CYP26 RNA expression in NB4 cells; assay: CYP26 RNA expression in NB4 cells (Q-RT-PCR); type: cell-based; details: 1 day, normalised to BACT, control set to 1.0
Experimental: as §2

| IC50 (HDAC 6) | melting point | SMILES | growth inhibition (MTS assay) (NB4 cells) | transcription modulating activity compared with ATRA [1] | CYP26 RNA expression ([1]; 1 day, Q-RT-PCR, normalised to BACT, control set to 1.0) | differentiation (CD11b expression, flow cytometry) (HL60 cells [2]) | growth inhibition (MTS assay) (HL60 cells [3]) | CYP26 RNA expression [4] |
| --- | --- | --- | --- | --- | --- | --- | --- | --- |
| > 10 µM |  | C=C1CN(Cc2ccc(C(=O)Nc3ccccc3N)cc2)C(=O)c2ccccc21 [Example 7, N-(2-Aminophenyl)-4-[(4-methylene-1-oxo-3,4-dihydroisoquino-2(1H)-yl)methyl]benzamide] | promotes growth inhibition | exceeded that of ATRA | induces expression of CYP26 | promotes growth inhibition and differentiation | promotes growth inhibition | induces expression of CYP26 |
| > 10 µM | > 230 °C | C=C1CN(Cc2ccc(C(=O)Nc3ccccc3N)cc2)C(CC(=O)O)c2ccccc21 (stereo not drawn) [Example 9, [2-(4-{[(2-Aminophenyl)amino]carbonyl}benzyl)-4-methylene-1,2,3,4-tetra hydroisoquinolin-1-yl]acetic acid] |  |  |  |  |  |  |
